What was measured:
[1] = tested on: Diamondback Moth (Plutella xylostella); test: Insecticidal test for diamondback moth (cabbage leaf dip); format: in vivo; details: foliar, 72 h, cabbage leaf immersed 30 seconds, 2nd-instar larvae, 25° C., three days after
Description: Insecticidal Test for Diamondback Moth (Plutella xylostella)
(§1) A cabbage leaf pieces was immersed in a solution prepared by diluting a test compound to a predetermined concentration for 30 seconds, and then dried in air. Then, the leaf piece was placed in a polyethylene cup of 7 cm-size in which 2nd-instar larvae of […] were placed. The cup was allowed to stand in a thermostatic chamber at 25° C. Three days after, the numbers of living and dead larvae were counted. The test was carried out in two replications each containing five larvae.

[2] = tested on: Common Cutworm (Spodoptera litura); test: Insecticidal test for common cutworm (cabbage leaf dip); format: in vivo; details: foliar, 72 h, cabbage leaf immersed 30 seconds, 2nd-instar larvae, 25° C., three days after
Description: Insecticidal Test for Common Cutworm (Spodoptera litura)
as §1, with “cabbage leaf piece was immersed” for “cabbage leaf pieces was immersed”, “Then, the cabbage leaf piece” for “Then, the leaf piece”

Compound: O=C(Nc1cccc(C(=O)Nc2ccc(C(F)(F)F)cc2C(F)(F)F)c1)OCC(F)(F)C(F)(F)F [Compound No. 250, N-(2,4-bistrifluoromethylphenyl) 3-[(2,2,3,3,3-pentafluoro-n-propyloxy)carbonylamino]benzamide]
- mortality at 1000 ppm [1]: ≥ 70%
- mortality at 1000 ppm [2]: ≥ 70%
